Legend:
Assay in all cases: relative viability (nuclei count vs DMSO), 5 days (fraction); higher = more cells survive
NVP-TAE684 + OSI-027 = compound: COc1cc(N2CCC(N3CCN(C)CC3)CC2)ccc1Nc1ncc(Cl)c(Nc2ccccc2S(=O)(=O)C(C)C)n1 [NVP-TAE684] + COc1cccc2cc(-c3nc([C@H]4CC[C@H](C(=O)O)CC4)n4ncnc(N)c34)[nH]c12 [OSI-027] (partner 0.5 µM)
Procedure, shortened: (§1)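 Lung cancer cell lines were seeded in 1536-well plates and dosed by pin tool the next day, with either a single drug or a fixed anchor-drug dose combined with five library-drug doses (not always all listed) spaced in √10 steps. Five days later, one step fixed the cells and stained their nuclei (final 0.05% Triton X-100, 1% formaldehyde, 1 ug/ml Hoechst), and nuclei were counted on 4× images. Relative viability is the nuclei count in treated wells divided by the count in vehicle wells, and each value is the median of duplicate plates.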

NVP-TAE684 + Linsitinib = compound: COc1cc(N2CCC(N3CCN(C)CC3)CC2)ccc1Nc1ncc(Cl)c(Nc2ccccc2S(=O)(=O)C(C)C)n1 [NVP-TAE684] + C[C@]1(O)C[C@@H](c2nc(-c3ccc4ccc(-c5ccccc5)nc4c3)c3c(N)nccn32)C1 [Linsitinib] (partner 1 µM)
Procedure, shortened: as §1

[1] = compound: C1=CC=C2C(=C1)N=C(S2)C(C#N)C3=NC(=NC=C3)NCCC4=CN=CC=C4 + Cc1nc(NC(=O)N2CCC[C@H]2C(N)=O)sc1-c1ccnc(C(C)(C)C(F)(F)F)c1 [Alpelisib] (partner 2 µM)
Procedure, shortened: as §1

NVP-TAE684 + AZD7762 = compound: COc1cc(N2CCC(N3CCN(C)CC3)CC2)ccc1Nc1ncc(Cl)c(Nc2ccccc2S(=O)(=O)C(C)C)n1 [NVP-TAE684] + NC(=O)Nc1cc(-c2cccc(F)c2)sc1C(=O)N[C@H]1CCCNC1 [AZD7762] (partner 0.2 µM)
Procedure, shortened: as §1

CUDC-101 + Vorinostat = compound: C#Cc1cccc(Nc2ncnc3cc(OC)c(OCCCCCCC(=O)NO)cc23)c1 [CUDC-101] + O=C(CCCCCCC(=O)Nc1ccccc1)NO [Vorinostat] (partner 1 µM)
Procedure, shortened: as §1

Row | Cell Line | relative viability (NVP-TAE684 + OSI-027; first compound 0.2 µM) | relative viability (NVP-TAE684 + OSI-027; first compound 0.6325 µM) | relative viability (NVP-TAE684 + OSI-027; first compound 2 µM) | relative viability (NVP-TAE684 + Linsitinib; first compound 0.2 µM) | relative viability (NVP-TAE684 + Linsitinib; first compound 0.6325 µM) | relative viability (NVP-TAE684 + Linsitinib; first compound 2 µM) | relative viability ([1]; first compound 0.005 µM) | relative viability ([1]; first compound 0.01581 µM) | relative viability ([1]; first compound 0.05 µM) | relative viability ([1]; first compound 0.1581 µM) | relative viability ([1]; first compound 0.5 µM) | relative viability (NVP-TAE684 + AZD7762; first compound 0.2 µM) | relative viability (NVP-TAE684 + AZD7762; first compound 0.6325 µM) | relative viability (NVP-TAE684 + AZD7762; first compound 2 µM) | relative viability (CUDC-101 + Vorinostat; first compound 0.01 µM) | relative viability (CUDC-101 + Vorinostat; first compound 0.03162 µM) | relative viability (CUDC-101 + Vorinostat; first compound 0.1 µM) | relative viability (CUDC-101 + Vorinostat; first compound 0.3162 µM) | relative viability (CUDC-101 + Vorinostat; first compound 1 µM)
1 | NCI-H322M | 0.426 | 0.469 | 0.336 | 0.805 | 0.862 | 0.872 | 0.825 | 0.77 | 0.68 | 0.899 | 0.709 | 0.553 | 0.599 | 0.453 | 0.858 | 0.81 | 0.799 | 0.596 | 0.494
2 | NCI-H647 | 0.692 | 0.58 | 0.417 | 1.49 | 1.09 | 0.522 | – | 1.18 | 0.876 | 1.41 | 0.599 | 0.41 | 0.408 | 0.201 | 0.479 | 0.465 | 0.664 | 0.427 | 0.262
3 | EMC-BAC-2 | 0.364 | 0.344 | 0.324 | 0.771 | – | 0.51 | 0.566 | 0.768 | 0.686 | 0.76 | 0.67 | 1.12 | – | 0.536 | 0.506 | 0.449 | 0.507 | 0.309 | 0.191
4 | PC-14 | 0.699 | 0.644 | 0.185 | 0.934 | 1.1 | 0.851 | 0.708 | 1.08 | 1 | 1.17 | 0.742 | 0.339 | 0.275 | 0.224 | 0.806 | 0.572 | 0.137 | 0.148 | 0.0543
5 | 201T | 0.762 | 0.732 | 0.474 | 1.1 | – | 0.925 | 0.995 | 1.08 | 1.04 | 1.03 | 0.967 | 0.669 | 0.79 | 0.521 | 1.02 | 0.954 | 0.937 | 0.982 | 0.842
6 | LXF-289 | 0.798 | 0.808 | 0.317 | 0.937 | 1.01 | 0.822 | 0.979 | 1.15 | 1.04 | 1.12 | 0.998 | 0.939 | 1.11 | 1.07 | 0.755 | 0.757 | 0.71 | 0.594 | 0.447
